Results published in US20240254174A1 (priority 2023, published 2024).
Several values for one entry are separate records, joined by “and”; a condition that tells them apart may be missing. Identical values can stand only once. Entries after “also recorded” stand apart in the source; their conditions may differ.

What was measured:
[1] = biological target: T1, α7 nAChR (Homo sapiens, UniProt P36544); test: cell-based; type: cell-based
[2] = system: Pdcd4 protein; type: cell-based
[3] = system: BDNF; type: cell-based
[4] = system: Pdcd4; settings: mouse, in vivo
[5] = system: BDNF; settings: mouse, in vivo
Target sequence in this assay (P21237 131-249): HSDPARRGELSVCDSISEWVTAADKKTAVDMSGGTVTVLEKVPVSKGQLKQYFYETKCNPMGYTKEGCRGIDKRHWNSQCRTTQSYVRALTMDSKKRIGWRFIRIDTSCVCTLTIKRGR

[6] = biological target: α7 nAChR (nicotinic acetylcholine receptor), expressed in Xenopus laevis oocytes (Human) (UniProt P36544); test: cell-based or functional assay
[7] = biological target: α9α10 nAChR, expressed in Xenopus laevis oocytes (Human) (UniProt Q9UGM1); test: cell-based or functional assay
[8] = system: α7-nAChR transfected cells; type: cell-based
[9] = system: non-transfected HEK cells; type: cell-based, human
[10] = in vivo
[11] = system: α7-nAChR transfected N2a cells; type: cell-based
[12] = biological target: α9α10 nAChR (Homo sapiens, UniProt Q9GZZ6+Q9UGM1); test: cell-based
[13] = biological target: T1, α7 nAChR; test: cell-based; settings: read-out: inhibition of ACh-mediated currents on α7 nAChR
[14] = system: nAChR subtypes; type: cell-based, Human
[15] = system: HEK cell lines
[16] = system: non-transfected N2a cells

T1 sequence (P36544 23-502 limits assumed): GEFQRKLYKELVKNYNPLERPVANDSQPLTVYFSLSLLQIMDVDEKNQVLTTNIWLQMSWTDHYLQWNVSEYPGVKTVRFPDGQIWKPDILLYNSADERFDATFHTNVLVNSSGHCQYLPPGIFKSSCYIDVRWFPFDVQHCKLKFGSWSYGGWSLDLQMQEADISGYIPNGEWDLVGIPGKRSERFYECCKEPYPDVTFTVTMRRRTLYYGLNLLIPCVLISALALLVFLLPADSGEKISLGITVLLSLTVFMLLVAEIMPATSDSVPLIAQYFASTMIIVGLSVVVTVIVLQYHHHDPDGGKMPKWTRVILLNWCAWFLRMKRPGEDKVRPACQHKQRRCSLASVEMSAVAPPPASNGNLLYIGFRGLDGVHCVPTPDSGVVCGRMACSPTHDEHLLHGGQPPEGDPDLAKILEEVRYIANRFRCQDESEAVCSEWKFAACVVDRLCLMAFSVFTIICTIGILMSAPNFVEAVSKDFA
Sequence of α7 nAChR (nicotinic acetylcholine receptor), expressed in Xenopus laevis oocytes (Human) (P36544 23-502): as the sequence (P36544 23-502 limits assumed) above
Sequence of Pdcd4 (Q61823 whole entry): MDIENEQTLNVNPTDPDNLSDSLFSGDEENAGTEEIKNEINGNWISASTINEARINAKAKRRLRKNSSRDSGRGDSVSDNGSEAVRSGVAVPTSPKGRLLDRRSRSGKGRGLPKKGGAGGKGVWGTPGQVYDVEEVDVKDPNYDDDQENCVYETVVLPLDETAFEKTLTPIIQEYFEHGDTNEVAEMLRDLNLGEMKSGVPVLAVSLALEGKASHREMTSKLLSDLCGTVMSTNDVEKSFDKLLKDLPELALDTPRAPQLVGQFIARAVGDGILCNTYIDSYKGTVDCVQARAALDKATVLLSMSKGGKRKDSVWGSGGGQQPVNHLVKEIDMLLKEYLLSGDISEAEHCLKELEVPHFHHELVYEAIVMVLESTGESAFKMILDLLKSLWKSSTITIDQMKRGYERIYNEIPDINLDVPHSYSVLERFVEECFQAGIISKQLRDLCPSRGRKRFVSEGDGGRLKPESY
Sequence of α9α10 nAChR, expressed in Xenopus laevis oocytes (Human) (Q9UGM1 23-479, chain 1 of 2): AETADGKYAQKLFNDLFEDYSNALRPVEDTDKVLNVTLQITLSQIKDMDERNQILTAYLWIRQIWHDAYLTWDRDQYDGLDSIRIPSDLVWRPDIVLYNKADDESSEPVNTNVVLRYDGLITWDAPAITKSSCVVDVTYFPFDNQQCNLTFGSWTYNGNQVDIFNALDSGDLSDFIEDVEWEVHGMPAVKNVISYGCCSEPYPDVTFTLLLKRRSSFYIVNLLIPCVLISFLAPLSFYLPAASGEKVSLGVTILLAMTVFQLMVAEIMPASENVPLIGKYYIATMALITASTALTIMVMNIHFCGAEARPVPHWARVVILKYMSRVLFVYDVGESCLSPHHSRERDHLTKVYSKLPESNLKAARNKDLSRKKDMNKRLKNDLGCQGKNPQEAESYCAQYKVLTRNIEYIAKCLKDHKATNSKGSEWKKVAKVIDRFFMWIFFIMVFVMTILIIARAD
Sequence of α9α10 nAChR, expressed in Xenopus laevis oocytes (Human) (Q9GZZ6 25-450, chain 2 of 2, further chain): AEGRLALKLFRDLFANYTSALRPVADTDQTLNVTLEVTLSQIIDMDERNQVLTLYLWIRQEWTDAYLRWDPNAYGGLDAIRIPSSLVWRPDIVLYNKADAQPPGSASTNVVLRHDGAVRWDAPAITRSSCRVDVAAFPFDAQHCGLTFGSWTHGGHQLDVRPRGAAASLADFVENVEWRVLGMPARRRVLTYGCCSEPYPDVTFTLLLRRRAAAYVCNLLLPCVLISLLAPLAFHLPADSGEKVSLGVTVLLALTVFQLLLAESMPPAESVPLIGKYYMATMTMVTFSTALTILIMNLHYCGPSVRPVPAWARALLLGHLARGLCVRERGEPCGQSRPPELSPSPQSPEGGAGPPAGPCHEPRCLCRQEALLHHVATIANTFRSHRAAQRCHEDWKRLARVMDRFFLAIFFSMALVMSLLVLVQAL
Sequence of α9α10 nAChR (Q9UGM1 26-479 limits assumed): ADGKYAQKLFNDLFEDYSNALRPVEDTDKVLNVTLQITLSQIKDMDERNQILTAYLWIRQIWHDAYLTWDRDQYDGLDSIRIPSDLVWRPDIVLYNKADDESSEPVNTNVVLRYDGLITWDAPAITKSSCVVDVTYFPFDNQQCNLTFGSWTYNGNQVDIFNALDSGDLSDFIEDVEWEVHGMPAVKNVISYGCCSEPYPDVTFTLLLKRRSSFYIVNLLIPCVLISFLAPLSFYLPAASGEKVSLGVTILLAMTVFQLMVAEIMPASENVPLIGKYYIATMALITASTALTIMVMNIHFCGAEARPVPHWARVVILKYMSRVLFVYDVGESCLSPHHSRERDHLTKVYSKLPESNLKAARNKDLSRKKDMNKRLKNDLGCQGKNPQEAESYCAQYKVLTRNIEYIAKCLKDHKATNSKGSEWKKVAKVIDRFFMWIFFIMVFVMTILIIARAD
Sequence of α9α10 nAChR (Q9GZZ6 25-450 limits assumed): as the sequence (Q9GZZ6 25-450, chain 2 of 2, further chain) above

Molecule: YTIW [RVG Region 1]
- effect of peptide regions on α7 nAChR mediated currents (in words) [1]: minimal effects

Molecule: 5′-GAGGCUAUGAGAGAAUUUATT-FL-3′ [siPdcd4]
- expression of Pdcd4 protein [2]: knock down
- BDNF production [3]: enhance
- Pdcd4 expression in tissue [4]: decreases
- BDNF production in tissue [5]: enhance

Molecule: RVG peptide (rabies viral glycoprotein peptide)
- potency (concentration response profile, inhibition of ACh-mediated currents) [6]: 31 µM
- potency (concentration response, inhibition of ACh-mediated currents) [6]: 32 µM
- potency (concentration response profile, inhibition of ACh-mediated currents) [7]: 153 µM

Molecule: YRKMWMPENPRLGTSCDAFCSSRGKVVELGRRRRRRRRR [lead CPP-9dR]
- delivery of siPdcd4-FL into α7-nAChR transfected cells [8]: can facilitate delivery
- delivery of siPdcd4-FL into non-transfected HEK cells [9]: not into non-transfected HEK cells
- siPdcd4-FL delivery into mouse CNS [10]: can facilitate siPdcd4-FL delivery into mouse CNS
- brain regional distribution ([10]; mouse): accumulate in the hippocampus and prefrontal cortex

Molecule: YRKMW [α-btx Region 1]
- effect of peptide regions on α7 nAChR mediated currents (in words) [1]: inhibit

Molecule: α-bungarotoxin [reference compound]
- cell entry / labeling (in words) [11]: unable to enter

Molecule: CC[C@H](C)[C@H](NC(=O)[C@H](CC(=O)O)NC(=O)[C@H](CS)NC(=O)[C@H](CO)NC(=O)[C@@H](NC(=O)CNC(=O)[C@H](CC(C)C)NC(=O)[C@H](CCCNC(=N)N)NC(=O)[C@@H]1CCCN1C(=O)[C@H](CC(N)=O)NC(=O)[C@H](CCC(=O)O)NC(=O)[C@@H]1CCCN1C(=O)[C@H](CCSC)NC(=O)[C@H](Cc1c[nH]c2ccccc12)NC(=O)[C@@H](NC(=O)[C@@H](NC(=O)[C@@H](N)Cc1ccc(O)cc1)[C@@H](C)O)[C@@H](C)CC)[C@@H](C)O)C(=O)N[C@@H](Cc1ccccc1)C(=O)N[C@H](C(=O)N[C@@H](CC(N)=O)C(=O)N[C@@H](CO)C(=O)N[C@@H](CCCNC(=N)N)C(=O)NCC(=O)N[C@@H](CCCCN)C(=O)N[C@@H](CCCNC(=N)N)C(=O)N[C@@H](C)C(=O)N[C@@H](CO)C(=O)N[C@@H](CCCCN)C(=O)NCC(=O)O)[C@@H](C)O [RVG peptide, reference compound]
- IC50 ([1]; α7 nAChR potency (IC50, concentration response profile)): 32 µM and 31 µM
- IC50 [12]: 153 ± 14 µM
- inhibition at 100 µM [13]: > 80%
- inhibition of ACh-mediated currents on several other nAChR subtypes [14]: > 25%
- nAChR subtype selectivity (in words) [14]: not target specific; also recorded: slight preference for the α7-nAChR; also recorded: not very selective
- neuro-/cytotoxicity [15]: not neuro- or cyto-toxic

Molecule: DMSO
- cell viability, positive control [16]: kills cells

Molecule: CDIFTNSRGKRASKG [RVG Region 3]
- effect of peptide regions on α7 nAChR mediated currents (in words) [1]: slightly antagonizes

Molecule: MPENPRLGTS [RVG Region 2]
- effect of peptide regions on α7 nAChR mediated currents (in words) [1]: minimal effects

Molecule: CDAFCSSRGKVVELG [α-btx Region 3]
- effect of peptide regions on α7 nAChR mediated currents (in words) [1]: inhibit

Molecule: CSCC[C@H](NC(=O)[C@H](CCCCN)NC(=O)[C@H](CCCNC(=N)N)NC(=O)[C@@H](N)Cc1ccc(O)cc1)C(=O)N[C@@H](Cc1c[nH]c2ccccc12)C(=O)N[C@@H](CCSC)C(=O)N1CCC[C@H]1C(=O)N[C@@H](CCC(=O)O)C(=O)N[C@@H](CC(N)=O)C(=O)N1CCC[C@H]1C(=O)N[C@@H](CCCNC(=N)N)C(=O)N[C@@H](CC(C)C)C(=O)NCC(=O)N[C@H](C(=O)N[C@@H](CO)C(=O)N[C@@H](CS)C(=O)N[C@@H](CC(=O)O)C(=O)N[C@@H](C)C(=O)N[C@@H](Cc1ccccc1)C(=O)N[C@@H](CS)C(=O)N[C@@H](CO)C(=O)N[C@@H](CO)C(=O)N[C@@H](CCCNC(=N)N)C(=O)NCC(=O)N[C@@H](CCCCN)C(=O)N[C@H](C(=O)N[C@H](C(=O)N[C@@H](CCC(=O)O)C(=O)N[C@@H](CC(C)C)C(=O)NCC(=O)O)C(C)C)C(C)C)[C@@H](C)O [lead peptide]
- α7 nAChR potency (IC50, concentration response profile) [1]: low μM
- inhibition of ACh-mediated currents on no more than two subtypes (positive hit criterion) [14]: > 80%
- inhibition of ACh-mediated currents on the other tested nAChR subtypes [14]: < 25%
- nAChR subtype selectivity (in words) [14]: minimally targeting nine other nAChR subtypes; also recorded: high selectivity
- time to entry into neuronal-like cells post-exposure [11]: ≤ 3 h
- time visually present in neuronal-like cells [11]: up to 72 hrs
- neuro-/cytotoxicity [15]: not neuro- or cyto-toxic
